US7414071B2, “Methods of treatment with selective EP4 receptor agonists” (Pfizer Inc., priority 2002, dated 2008)

Tested on: New Zealand White male rabbits
Experiment: In vivo anesthetized rabbit model (hypotensive effect: mean arterial pressure and heart rate)
Protocol: Methods: New Zealand White male rabbits (3-4 kg) are anesthetized with sodium pentobarbital (30 mg/kg, i.v.) and a surgical plane of anesthesia is maintained by a continuous infusion of sodium pentobarbital (16 mg/kg/hr) via an ear vein catheter. A tracheotomy is performed through a ventral midline cervical incision and the rabbits are ventilated with 100% oxygen using a positive pressure ventilator. Body temperature is maintained at 38.5° C. using a heating pad connected to a YSI temperature controller model 72 (Yellow Springs Instruments, Yellow Springs, […].). Fluid-filled catheters are placed in the right jugular vein (for intravenous drug administration) and in the right carotid artery for arterial pressure monitoring and for blood gas analysis using a model 248 blood gas analyzer (Bayer Diagnostics, Norwood, Mass.). The ventilator is adjusted as needed to maintain blood pH and pCO2 within normal physiological ranges for rabbits. […] Blood is sampled after dosing or during the infusion of the test compound to determine plasma concentrations of the test compounds.
Thus, dosing volumes were 0.2 ml/kg (Group A) subcutaneously or 5 ml/h (Groups B, C, and D) as an intravenous (IV) infusion. The term “mgA” means the number of milligrams adjusted for active compound (e.g. corrected for salt etc.).
Dosing: Four groups (Groups A, B, C, and D) of two rabbits each were dosed as follows.

[1] = Group B, 167 μg/kg/h IV infusion
[2] = Group C, 16.7 μg/kg/h IV infusion

O=C([O-])c1ccc(CCCN2C(=O)CC[C@@H]2CC[C@@H](O)Cc2cccc(C(F)(F)F)c2)s1.[Na+] [Compound 3M sodium salt]
duration of hemodynamic effect (Group A, 1 mgA/kg SC): sustained over the entire 4 hour post-dose interval
effect on heart rate (Group A, 1 mgA/kg SC): increase in heart rate
effect on mean arterial pressure (Group A, 1 mgA/kg SC): decrease in mean arterial pressure
onset of hemodynamic effect (Group A, 1 mgA/kg SC): < 2 min
mean arterial pressure (MAP) (Group A, 1 mgA/kg SC bolus, 5 min post-dose, mean of 2, baseline 92): 69 mm Hg
heart rate (HR) (Group A, 1 mgA/kg SC bolus, 5 min post-dose, mean of 2, baseline 243): 268 beats/minute
mean arterial pressure (MAP) (Group A, 1 mgA/kg SC bolus, 10 min post-dose, mean of 2, baseline 92): 59 mm Hg
heart rate (HR) (Group A, 1 mgA/kg SC bolus, 10 min post-dose, mean of 2, baseline 243): 283 beats/minute
mean arterial pressure (MAP) (Group A, 1 mgA/kg SC bolus, 15 min post-dose, mean of 2, baseline 92): 60 mm Hg
heart rate (HR) (Group A, 1 mgA/kg SC bolus, 15 min post-dose, mean of 2, baseline 243): 285 beats/minute
mean arterial pressure (MAP) (Group A, 1 mgA/kg SC bolus, 30 min post-dose, mean of 2, baseline 92): 59 mm Hg
heart rate (HR) (Group A, 1 mgA/kg SC bolus, 30 min post-dose, mean of 2, baseline 243): 284 beats/minute
mean arterial pressure (MAP) (Group A, 1 mgA/kg SC bolus, 60 min post-dose, mean of 2, baseline 92): 59 mm Hg
heart rate (HR) (Group A, 1 mgA/kg SC bolus, 60 min post-dose, mean of 2, baseline 243): 288 beats/minute
mean arterial pressure (MAP) (Group A, 1 mgA/kg SC bolus, 90 min post-dose, mean of 2, baseline 92): 59 mm Hg
heart rate (HR) (Group A, 1 mgA/kg SC bolus, 90 min post-dose, mean of 2, baseline 243): 284 beats/minute
mean arterial pressure (MAP) (Group A, 1 mgA/kg SC bolus, 120 min post-dose, mean of 2, baseline 92): 58 mm Hg
heart rate (HR) (Group A, 1 mgA/kg SC bolus, 120 min post-dose, mean of 2, baseline 243): 278 beats/minute
mean arterial pressure (MAP) (Group A, 1 mgA/kg SC bolus, 150 min post-dose, mean of 2, baseline 92): 57 mm Hg
heart rate (HR) (Group A, 1 mgA/kg SC bolus, 150 min post-dose, mean of 2, baseline 243): 275 beats/minute
mean arterial pressure (MAP) (Group A, 1 mgA/kg SC bolus, 180 min post-dose, mean of 2, baseline 92): 60 mm Hg
heart rate (HR) (Group A, 1 mgA/kg SC bolus, 180 min post-dose, mean of 2, baseline 243): 273 beats/minute
mean arterial pressure (MAP) (Group A, 1 mgA/kg SC bolus, 210 min post-dose, mean of 2, baseline 92): 61 mm Hg
heart rate (HR) (Group A, 1 mgA/kg SC bolus, 210 min post-dose, mean of 2, baseline 243): 273 beats/minute
mean arterial pressure (MAP) (Group A, 1 mgA/kg SC bolus, 240 min post-dose, mean of 2, baseline 92): 65 mm Hg
heart rate (HR) (Group A, 1 mgA/kg SC bolus, 240 min post-dose, mean of 2, baseline 243): 273 beats/minute
duration of hemodynamic effect [1]: sustained over the entire 4 hour post-dose interval
effect on heart rate [1]: increase in heart rate
effect on mean arterial pressure [1]: decrease in mean arterial pressure
onset of hemodynamic effect [1]: < 2 min
mean arterial pressure (MAP) (Group B, 167 μg/kg/hr IV infusion for 4 hours, 5 min, mean of 2, baseline 87): 67 mm Hg
heart rate (HR) (Group B, 167 μg/kg/hr IV infusion for 4 hours, 5 min, mean of 2, baseline 260): 296 beats/minute
mean arterial pressure (MAP) (Group B, 167 μg/kg/hr IV infusion for 4 hours, 10 min, mean of 2, baseline 87): 67 mm Hg
heart rate (HR) (Group B, 167 μg/kg/hr IV infusion for 4 hours, 10 min, mean of 2, baseline 260): 296 beats/minute
mean arterial pressure (MAP) (Group B, 167 μg/kg/hr IV infusion for 4 hours, 15 min, mean of 2, baseline 87): 69 mm Hg
heart rate (HR) (Group B, 167 μg/kg/hr IV infusion for 4 hours, 15 min, mean of 2, baseline 260): 296 beats/minute
mean arterial pressure (MAP) (Group B, 167 μg/kg/hr IV infusion for 4 hours, 30 min, mean of 2, baseline 87): 68 mm Hg
heart rate (HR) (Group B, 167 μg/kg/hr IV infusion for 4 hours, 30 min, mean of 2, baseline 260): 291 beats/minute
mean arterial pressure (MAP) (Group B, 167 μg/kg/hr IV infusion for 4 hours, 60 min, mean of 2, baseline 87): 67 mm Hg
heart rate (HR) (Group B, 167 μg/kg/hr IV infusion for 4 hours, 60 min, mean of 2, baseline 260): 293 beats/minute
mean arterial pressure (MAP) (Group B, 167 μg/kg/hr IV infusion for 4 hours, 90 min, mean of 2, baseline 87): 57 mm Hg
heart rate (HR) (Group B, 167 μg/kg/hr IV infusion for 4 hours, 90 min, mean of 2, baseline 260): 282 beats/minute
mean arterial pressure (MAP) (Group B, 167 μg/kg/hr IV infusion for 4 hours, 120 min, mean of 2, baseline 87): 55 mm Hg
heart rate (HR) (Group B, 167 μg/kg/hr IV infusion for 4 hours, 120 min, mean of 2, baseline 260): 282 beats/minute
mean arterial pressure (MAP) (Group B, 167 μg/kg/hr IV infusion for 4 hours, 150 min, mean of 2, baseline 87): 52 mm Hg
heart rate (HR) (Group B, 167 μg/kg/hr IV infusion for 4 hours, 150 min, mean of 2, baseline 260): 279 beats/minute
mean arterial pressure (MAP) (Group B, 167 μg/kg/hr IV infusion for 4 hours, 180 min, mean of 2, baseline 87): 53 mm Hg
heart rate (HR) (Group B, 167 μg/kg/hr IV infusion for 4 hours, 180 min, mean of 2, baseline 260): 285 beats/minute
mean arterial pressure (MAP) (Group B, 167 μg/kg/hr IV infusion for 4 hours, 210 min, mean of 2, baseline 87): 56 mm Hg
heart rate (HR) (Group B, 167 μg/kg/hr IV infusion for 4 hours, 210 min, mean of 2, baseline 260): 284 beats/minute
mean arterial pressure (MAP) (Group B, 167 μg/kg/hr IV infusion for 4 hours, 240 min, mean of 2, baseline 87): 55 mm Hg
heart rate (HR) (Group B, 167 μg/kg/hr IV infusion for 4 hours, 240 min, mean of 2, baseline 260): 297 beats/minute
effect on heart rate [2]: slight increase in the heart rate
effect on mean arterial pressure [2]: slight decrease in mean arterial pressure
mean arterial pressure (MAP) (Group C, 16.7 μg/kg/hr IV infusion for 4 hours, 5 min, mean of 2, baseline 95): 91 mm Hg
heart rate (HR) (Group C, 16.7 μg/kg/hr IV infusion for 4 hours, 5 min, mean of 2, baseline 291): 289 beats/minute
mean arterial pressure (MAP) (Group C, 16.7 μg/kg/hr IV infusion for 4 hours, 10 min, mean of 2, baseline 95): 86 mm Hg
heart rate (HR) (Group C, 16.7 μg/kg/hr IV infusion for 4 hours, 10 min, mean of 2, baseline 291): 299 beats/minute
mean arterial pressure (MAP) (Group C, 16.7 μg/kg/hr IV infusion for 4 hours, 15 min, mean of 2, baseline 95): 84 mm Hg
heart rate (HR) (Group C, 16.7 μg/kg/hr IV infusion for 4 hours, 15 min, mean of 2, baseline 291): 302 beats/minute
mean arterial pressure (MAP) (Group C, 16.7 μg/kg/hr IV infusion for 4 hours, 30 min, mean of 2, baseline 95): 84 mm Hg
heart rate (HR) (Group C, 16.7 μg/kg/hr IV infusion for 4 hours, 30 min, mean of 2, baseline 291): 306 beats/minute
mean arterial pressure (MAP) (Group C, 16.7 μg/kg/hr IV infusion for 4 hours, 60 min, mean of 2, baseline 95): 85 mm Hg
heart rate (HR) (Group C, 16.7 μg/kg/hr IV infusion for 4 hours, 60 min, mean of 2, baseline 291): 300 beats/minute
mean arterial pressure (MAP) (Group C, 16.7 μg/kg/hr IV infusion for 4 hours, 90 min, mean of 2, baseline 95): 83 mm Hg
